{"source": "patent US10196417B2", "about": "“Baicalin magnesium compound and its preparation method and application” (CHENGDE MEDICAL UNIVERSITY, priority 2016, dated 2019)", "test_system": "acetic acid-induced pain in mice", "experiment": "Analgesia: acetic acid-induced writhing", "assay_type": "in vivo", "details": "0.15 g/kg intragastric once per day 7 days", "method": "40 mice, 20-22 g in weight, were randomly divided into 4 groups each having 10 mice, a baicalin (0.067 g/kg) group, a baicalin magnesium (equivalent to 0.067 g/kg of baicalin) group, a blank control group (administrated with normal saline), and an aspirin positive control group (0.15 g/kg). The mice were intragastrically administrated once per day for successive 7 days. After 30 minutes of final administration, the mice were intraperitoneally injected with 0.6% acetic acid saline solution at a dose of 0.2 mL/10 g; the number of writhing responses in the mice within 15 minutes was counted. Analgesia % was calculated as follows: Analgesia %=[(average number of writhing responses of the blank control group−average number of writhing responses of the drug administration group)/average number of writhing responses of the blank control group]×100%. Single-factor variance analysis was performed on data by the SPSS19.0 statistical software, and P<0.05 was of statistical significance.", "note": "Marks after values point to notes of the source that are not given here.", "data": [{"smiles": "CC(=O)Oc1ccccc1C(=O)O", "note": "[Positive Control, aspirin]", "values": [{"measurement": "Analgesia %", "setting": "vs blank control", "value": "83.3* %"}, {"measurement": "Number of writhing", "setting": "writhing within 15 minutes after 0.6% acetic acid i.p.", "value": "4.43 ± 3.21"}]}]}
